Assay results from US12643886B2 (Ontario Institute for Cancer Research (OICR), priority 2021, dated 2026).

Assays:
Assay type in all cases: biochemical
[1] = biological target: T1, NUAK2 (h) (Homo sapiens, UniProt Q9H093); experiment: NUAK2 enzymatic assay (radiometric, Eurofins); details: full-length recombinant enzyme
T1 construct: This assay was done radiometrically using full-length, recombinant enzyme; purchased Eurofins
T1 sequence (Q9H093 1-628): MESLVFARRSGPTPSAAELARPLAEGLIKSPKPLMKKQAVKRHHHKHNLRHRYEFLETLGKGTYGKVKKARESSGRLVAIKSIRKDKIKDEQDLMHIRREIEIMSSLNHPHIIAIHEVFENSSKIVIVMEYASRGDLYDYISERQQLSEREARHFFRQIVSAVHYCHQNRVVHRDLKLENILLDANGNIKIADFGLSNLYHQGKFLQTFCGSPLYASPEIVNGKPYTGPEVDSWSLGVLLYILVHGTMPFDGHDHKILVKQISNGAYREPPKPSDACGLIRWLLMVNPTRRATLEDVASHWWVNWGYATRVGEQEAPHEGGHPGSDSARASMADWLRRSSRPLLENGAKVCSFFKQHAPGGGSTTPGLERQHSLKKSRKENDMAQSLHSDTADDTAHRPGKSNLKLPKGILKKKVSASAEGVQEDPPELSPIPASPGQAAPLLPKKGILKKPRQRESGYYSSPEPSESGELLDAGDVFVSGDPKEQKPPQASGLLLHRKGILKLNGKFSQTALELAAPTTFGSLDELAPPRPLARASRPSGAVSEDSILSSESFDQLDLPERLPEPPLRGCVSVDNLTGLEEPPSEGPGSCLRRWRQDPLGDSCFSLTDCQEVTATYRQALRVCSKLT
Procedure: (§1) To identify small molecule NUAK inhibitors, a biochemical NUAK2 enzymatic assay were outsourced to Eurofins. This assay was done radiometrically using full-length, recombinant enzyme. NUAK2 (h) was incubated with 8 mM MOPS pH 7.0, 0.2 mM EDTA, 300 μM […], 10 mM magnesium acetate and […] (specific activity and concentration as required). The reaction was initiated by the addition of the Mg/ATP mix. After incubation for 40 minutes at room temperature, the reaction was stopped by the addition of phosphoric acid to a concentration of 0.5%. 10 μL of the reaction was then spotted onto a P30 filtermat and washed four times for 4 minutes in 0.425% phosphoric acid and once in methanol prior to drying and scintillation counting. Compounds were routinely counter-screened against Aurora A and NUAK1. The results are shown in Table 1 where IC50's are reported in the following ranges: A: 0.1-10 nM; B: 11-100 nM; C: 101-1000 nM; D: >1000 nM for the compounds of Formula (I)

[2] = biological target: T2, NUAK1 (Homo sapiens, UniProt O60285); experiment: Counter-screen against NUAK1
T2 sequence (O60285 1-661): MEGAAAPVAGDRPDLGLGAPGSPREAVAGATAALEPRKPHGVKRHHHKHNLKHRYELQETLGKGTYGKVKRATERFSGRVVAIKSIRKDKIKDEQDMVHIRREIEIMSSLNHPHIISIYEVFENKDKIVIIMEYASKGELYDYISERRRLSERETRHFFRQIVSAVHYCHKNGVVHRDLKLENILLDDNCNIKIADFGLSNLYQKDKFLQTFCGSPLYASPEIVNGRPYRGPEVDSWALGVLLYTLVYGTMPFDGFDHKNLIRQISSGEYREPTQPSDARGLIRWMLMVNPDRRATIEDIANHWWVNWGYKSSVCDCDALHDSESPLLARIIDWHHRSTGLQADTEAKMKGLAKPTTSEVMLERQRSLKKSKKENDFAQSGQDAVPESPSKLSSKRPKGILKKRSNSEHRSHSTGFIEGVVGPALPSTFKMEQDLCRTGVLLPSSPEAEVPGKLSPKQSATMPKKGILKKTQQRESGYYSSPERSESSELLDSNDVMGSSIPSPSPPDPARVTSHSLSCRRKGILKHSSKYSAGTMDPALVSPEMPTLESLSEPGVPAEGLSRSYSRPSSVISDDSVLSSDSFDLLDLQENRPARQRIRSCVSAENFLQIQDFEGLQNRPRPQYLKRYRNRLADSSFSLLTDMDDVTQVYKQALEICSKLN
Procedure: as §1

[3] = biological target: T3, Aurora A (Homo sapiens, UniProt O14965); experiment: Counter-screen against Aurora A; details: read-out: AUR-A (IC50)
T3 sequence (O14965 1-403): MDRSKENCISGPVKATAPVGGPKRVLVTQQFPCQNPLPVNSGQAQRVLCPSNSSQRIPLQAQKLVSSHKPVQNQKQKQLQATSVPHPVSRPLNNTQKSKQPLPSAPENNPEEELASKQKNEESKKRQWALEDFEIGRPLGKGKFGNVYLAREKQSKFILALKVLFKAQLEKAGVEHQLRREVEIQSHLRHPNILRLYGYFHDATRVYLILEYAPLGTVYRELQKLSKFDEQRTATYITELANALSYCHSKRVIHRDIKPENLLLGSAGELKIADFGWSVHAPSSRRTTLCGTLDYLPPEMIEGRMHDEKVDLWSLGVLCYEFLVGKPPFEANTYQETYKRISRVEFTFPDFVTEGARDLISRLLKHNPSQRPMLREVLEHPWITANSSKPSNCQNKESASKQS
Procedure: as §1

Row | Structure (SMILES) | IC50 [1] | IC50 [2] | IC50 [3]
1 | COc1c(Nc2ncc(C(F)(F)F)c(Nc3cccc4c3C(=O)NC4)n2)ccc(N2CCCN(C)CC2)c1F [Compound I-38, 7-((2-((3-fluoro-2-methoxy-4-(4-methyl-1,4-diazepan-1-yl)phenyl)amino)-5-(trifluoromethyl)pyrimidin-4-yl)amino)isoindolin-1-one] | 0.1 to 10 nM | 11 to 100 nM | 101 to 1000 nM
2 | COc1c(Nc2ncc(C(F)(F)F)c(Nc3cccc4c3C(=O)NC4)n2)ccc(N2CCC(N3CCNCC3)CC2)c1F [Compound I-39, 7-((2-((3-fluoro-2-methoxy-4-(4-(piperazin-1-yl)piperidin-1-yl)phenyl)amino)-5-(trifluoromethyl)pyrimidin-4-yl)amino)isoindolin-1-one] | 11 to 100 nM | 11 to 100 nM | 11 to 100 nM
3 | O=C1NCc2cccc(Nc3nc(Nc4ccc(N5CCC(N6CCNCC6)CC5)cc4OC(F)F)ncc3C(F)(F)F)c21 [Compound I-40, 7-((2-((2-(difluoromethoxy)-4-(4-(piperazin-1-yl)piperidin-1-yl)phenyl)amino)-5-(trifluoromethyl)pyrimidin-4-yl)amino)isoindolin-1-one] | 0.1 to 10 nM | 11 to 100 nM | 101 to 1000 nM
4 | CN1CCN(c2ccc(Nc3ncc(Cl)c(Nc4cccc5c4C(=O)NC5)n3)c(OC(F)(F)F)c2)CC1 [Compound I-41, 7-((5-chloro-2-((4-(4-methylpiperazin-1-yl)-2-(trifluoromethoxy)phenyl)amino)pyrimidin-4-yl)amino)isoindolin-1-one] | 11 to 100 nM | 101 to 1000 nM | 101 to 1000 nM
5 | O=C1NCc2cccc(Nc3nc(Nc4ccc(N5CCNCC5)cc4OC(F)F)ncc3F)c21 [Compound I-42, 7-((2-((2-(difluoromethoxy)-4-(piperazin-1-yl)phenyl)amino)-5-fluoropyrimidin-4-yl)amino)isoindolin-1-one] | 11 to 100 nM | 101 to 1000 nM | 101 to 1000 nM
6 | COc1cc2c(cc1Nc1ncc(F)c(Nc3cccc4c3C(=O)NC4)n1)CCNC2 [Compound I-43, 7-((5-fluoro-2-((7-methoxy-1,2,3,4-tetrahydroisoquinolin-6-yl)amino)pyrimidin-4-yl)amino)isoindolin-1-one] | 11 to 100 nM | 101 to 1000 nM | 101 to 1000 nM
7 | COc1cc2c(cc1Nc1ncc(C(F)(F)F)c(Nc3cccc4c3C(=O)NC4)n1)CCNCC2 [Compound I-44, 7-((2-((8-methoxy-2,3,4,5-tetrahydro-1H-benzo[d]azepin-7-yl)amino)-5-(trifluoromethyl)pyrimidin-4-yl)amino)isoindolin-1-one] | 0.1 to 10 nM | 101 to 1000 nM | 101 to 1000 nM
8 | COc1c(Nc2ncc(C(F)(F)F)c(Nc3cccc4c3C(=O)NC4)n2)ccc(N2CCC(N3CCN(C)CC3)CC2)c1F [Compound I-45, 7-((2-((3-fluoro-2-methoxy-4-(4-(4-methylpiperazin-1-yl)piperidin-1-yl)phenyl)amino)-5-(trifluoromethyl)pyrimidin-4-yl)amino)isoindolin-1-one] | 11 to 100 nM | 11 to 100 nM | 11 to 100 nM
9 | COc1cc2c(cc1Nc1ncc(C(F)(F)F)c(Nc3cccc4c3C(=O)NC4)n1)CNCC21CC1 [Compound I-46, 7-((2-((6′-methoxy-2′,3′-dihydro-1′H-spiro[cyclopropane-1,4′-isoquinolin]-7′-yl)amino)-5-(trifluoromethyl)pyrimidin-4-yl)amino)isoindolin-1-one] | 0.1 to 10 nM | 11 to 100 nM | > 1000 nM
10 | COc1cc2c(cc1Nc1ncc(OC)c(Nc3cccc4c3C(=O)NC4)n1)CCNC2 [Compound I-47, 7-((5-methoxy-2-((7-methoxy-1,2,3,4-tetrahydroisoquinolin-6-yl)amino)pyrimidin-4-yl)amino)isoindolin-1-one] | 11 to 100 nM | 101 to 1000 nM | > 1000 nM
11 | C[C@@H]1CN(C2CCN(c3ccc(Nc4ncc(C(F)(F)F)c(Nc5cccc6c5C(=O)NC6)n4)c(OC(F)F)c3)CC2)C[C@H](C)N1C [Compound I-48, 7-((2-((2-(difluoromethoxy)-4-(4-((3S,5R)-3,4,5-trimethylpiperazin-1-yl)piperidin-1-yl)phenyl)amino)-5-(trifluoromethyl)pyrimidin-4-yl)amino)isoindolin-1-one] | 0.1 to 10 nM | 11 to 100 nM | 101 to 1000 nM
12 | C[C@@H]1CN(c2ccc(Nc3ncc(C(F)(F)F)c(Nc4cccc5c4C(=O)NC5)n3)c(OC(F)F)c2)C[C@H](C)N1 [Compound I-49, 7-((2-((2-(difluoromethxoy)-4-((3S,5R)-3,5-dimethylpiperazin-1-yl)phenyl)amino)-5-(trifluoromethyl)pyrimidin-4-yl)amino)isoindolin-1-one] | 0.1 to 10 nM | 11 to 100 nM | > 1000 nM
13 | C[C@H]1CN(c2ccc(Nc3ncc(C(F)(F)F)c(Nc4cccc5c4C(=O)NC5)n3)c(OC(F)F)c2)CCN1 [Compound I-50, (S)-7-((2-((2-(difluoromethoxy)-4-(3-methylpiperazin-1-yl)phenyl)amino)-5-(trifluoromethyl)pyrimidin-4-yl)amino)isoindolin-1-one] | 0.1 to 10 nM | 11 to 100 nM | > 1000 nM
14 | CN1CCN(c2ccc(Nc3ncc(Cl)c(Nc4cccc5c4C(=O)NC5)n3)cc2)CC1 [Compound I-51, 7-((5-chloro-2-((4-(4-methylpiperazin-1-yl)phenyl)amino)pyrimidin-4-yl)amino)isoindolin-1-one] | 0.1 to 10 nM | 0.1 to 10 nM | 0.1 to 10 nM
15 | O=C1NCc2cccc(Nc3nc(Nc4cc5c(cc4Cl)CNCC5)ncc3C(F)(F)F)c21 [Compound I-52, 7-((2-((7-chloro-1,2,3,4-tetrahydroisoquinolin-6-yl)amino)-5-(trifluoromethyl)pyrimidin-4-yl)amino)isoindolin-1-one] | 11 to 100 nM | 11 to 100 nM | 11 to 100 nM
16 | CN1CCN(c2ccc(Nc3ncc(C(F)(F)F)c(Nc4cccc5c4C(=O)NC5)n3)c(OC(F)(F)F)c2)CC1 [Compound I-53, 7-((2-((4-(4-methylpiperazin-1-yl)-2-(trifluoromethoxy)phenyl)amino)-5-(trifluoromethyl)pyrimidin-4-yl)amino)isoindolin-1-one] | 11 to 100 nM | 101 to 1000 nM | > 1000 nM
17 | O=C1NCc2cccc(Nc3nc(Nc4ccc(N5CCCNCC5)cc4OC(F)F)ncc3C(F)(F)F)c21 [Compound I-55, 7-((2-((4-(1,4-diazepan-1-yl)-2-(difluoromethoxy)phenyl)amino)-5-(trifluoromethyl)pyrimidin-4-yl)amino)isoindolin-1-one] | 0.1 to 10 nM | 11 to 100 nM | > 1000 nM
